Measurements reported in article PMC7076710, “Synthesis, Identification, and Structure–Activity Relationship Analysis of GATA4 and NKX2-5 Protein–Protein Interaction Modulators” (Journal of Medicinal Chemistry, 2019).

Tested on: rat BNP promoter activity in neonatal rat ventricular myocytes
Experiment: BNP promoter luciferase reporter in neonatal cardiomyocytes with or without endothelin-1
Assay type: cell-based
Conditions: neonatal cardiomyocytes, 24 h
Procedure: Five compounds (GATA4–NKX2-5 synergy inhibitors 1, 61, and 65; the synergy activator 2; and the NKX2-5 activity inhibitor 47c) were selected for studies in neonatal cardiomyocytes, which were treated with endothelin-1 (ET-1), a well-established hypertrophic agonist that activates the gene expression of both ANP and BNP (Figure 4). The myocytes were transfected with construct containing −534/+4 proximal region of rat BNP promoter with GATA4 and NKX2-5 binding sites in front of luciferase before exposure to compounds and ET-1, which was added 1 h after the compounds.
Figure 4 Effects of the compounds 1, 2, 47c, 61, and 65 on BNP gene activation in cardiomyocytes. Neonatal cardiomyocytes were transfected with rat BNP luciferase reporter for 24 h. The cells were exposed to compounds and 1 h later to endothelin-1 (ET-1) for 24 h. The results are expressed as +SD (n = 3 or 9 for DMSO groups). ***P < 0.001 vs DMSO; **P < 0.01 vs DMSO; *P < 0.05 vs DMSO (one-way ANOVA followed by Tukey’s HSD or Welch ANOVA followed by Games–Howell); ^###P < 0.001 vs DMSO, no stimulus (independent samples Student’s t test).
The plasmids expressing mouse GATA4 protein, pMT2-GATA4, and empty pMT2 were gifts from D. B. Wilson (Department of Pediatrics, St. Louis Children’s Hospital, St. Louis, MO).[44] The plasmids expressing mouse NKX2-5 protein, pMT2-NKX2-5, have been described earlier.[28] The luciferase reporter plasmid used in GATA4–NKX2-5 transcriptional synergy assay and NKX transcriptional assay, pGL3-3xHA, contains three high affinity binding sites for NKX2-5.[28] The luciferase reporter plasmid used in GATA transcriptional assay, NP-112, contains tandem GATA-sites and minimal promoter of rat brain natriuretic peptide (BNP) gene.[45] The pGL3-BNP luciferase reporter containing −534/+4 bp rat BNP proximal promoter described previously was used in hypertrophy assay.[46]
The neonatal rat ventricular myocytes were isolated from 2- to 3-day-old Wistar rats, as described earlier.[29],[32] Rat pups were acquired from the experimental animal facility of the University of Helsinki with an internal use license (KEK17-012). Animals were housed in standard conditions, and their handling and all procedures were carried out in accordance with University of Helsinki institutional guidelines, which conform to the National Research Council (U.S.) Guide for the Care and Use of Laboratory Animals.[47] The cells were seeded at 50 000 cells/well in Isoplate-96 microplates (PerkinElmer, Turku, Finland) and cultured for 18–20 h with Dulbecco’s modified Eagle medium (DMEM)/F12 culture medium containing 2.5 mM L-glutamine, supplemented with 100 IU/mL penicillin–streptomycin and 10% fetal bovine serum (all from Gibco, Thermo Scientific). Transfections were carried out for 24 h in serum free media (CSFM; DMEM/F12, 2.5 mg/mL bovine serum albumin, 1 μM insulin, 2.5 mM L-glutamine, 32 nM selenium, 2.8 mM sodium pyruvate, 5.64 μg/mL transferrin, 1 nM T3, and 100 IU/mL PS) by using 100 ng of pGL3-BNP luciferase plasmid per well in a 1:3 ratio of DNA/transfection reagent (Fugene 6, Promega). […] After 24 h, the luminescence was measured as above.
Results from cardiomyocyte experiments are expressed as mean + SD from at least three independent experiments. Data were analyzed using IBM SPSS Statistics 24 software. […] Significance between ET-1 and DMSO samples was analyzed with independent samples Student’s t test. […]

Row | effect on BNP promoter activity in cardiomyocytes (in words) | Compound
1 | increased BNP promoter activity | Cc1onc(-c2ccccc2)c1C(=O)N(C1=NC(C)CS1)c1ccc(Cl)cc1 (centres unmarked) [Compound 2]
2 | increased BNP promoter activity | N-[4-(Diethylamino)phenyl]-3-methyl-5-(4-methyl-1,2,3-thiadiazol-5-yl)isoxazole-4-carboxamide [Compound 47c]
